Patent US6180083A, “Tropane derivatives useable in particular for in vivo detection of dopamine transporters” (CIS bio International, priority 1996, dated 2001)
Like-named read-outs stand apart in the source and are kept apart here.

What was measured:
[1] = target: T1, dopamine transporters (Rattus norvegicus, UniProt P23977); test: in vitro affinity of [^125 I]PE21 for dopamine transporters; format: binding
Experimental: The affinity of compound [^125 I)PE21 for dopamine transporters was also determined in vitro, and the following value was obtained: […]

[2] = target: T2, serotonin transporter (Rattus norvegicus, UniProt P31652); test: biochemical; format: binding
T2 construct: in vitro studies are conducted on brain membrane preparations; from tissue; host or cells: brain membrane preparations
Experimental: (§1) In this example, in vitro studies are conducted on brain membrane preparations.
(§2) Med., 1996, 37, pages 1197-1202 for tests of the same type conducted with β-CIT and iodoaltropane described in WO-A-95/11901.

[3] = test system: dopamine transporter; test: in vivo brain biodistribution in the rat with preinjection of GBR 12909 (specific inhibitor of the dopamine transporter); design: species or system rat (male Wistar); conditions: for fixation in the striatum prevented/inhibited by preinjection of GBR 12909: GBR 12909 5 mg/kg i.v. 30 min before, 2 hours after injection
Experimental: (§3) In this example, in vivo tests in the rat are used to study the affinity and specificity of the compound of example 1, hereinafter called PE21, for the dopamine transporter.
(§4) For this purpose 3 batches of male Wistar rats are used using 6 rats per batch. Batch number 1 is first given an intravenous injection of GBR 12909 (specific inhibitor of the dopamine transporter produced by RBI Bioblock) at a dose of 5 mg/kg, and 30 minutes later an injection of the compound of example 1 is given by intravenous route, at a dose of 8.10^-6 mg/kg.
(§5) Batch number 3, or the reference batch, only receives an intravenous injection of the compound of example 1.
(§6) 2 hours later, the animals are sacrificed and the doses of radioactivity in the cerebellum, striatum and frontal cortex tissues are determined.
(§7) The results obtained are given in FIG. 2 and are expressed as a % of the dose injected per gram of tissue.
(§8) In this figure, the columns in white relate to batch number 3 (reference), the shaded columns relate to batch number 1 which received GBR 12909 and the dotted columns relate to batch number 2 which received paroxetine.
(§9) In this example, the same operating mode as in example 14 is followed to conduct the same in vivo brain biodistribution study in the rat, but using the compound of the prior art β-CIT (3b-4-iodo[^125 I]phenyl)-tropan-2β-carboxylic acid methyl ester) instead of the compound of example 1.

[4] = test system: dopamine transporter system; test: kinetics study in vivo on the brain distribution in primates (SPECT, […]); design: species or system primates (Cynomologus female macaque); conditions: words
Experimental: In this example, a kinetics study in vivo is made on the brain distribution of the compound of example 1 in primates (Cynomologus female macaque, 2 kg, anaesthetized with ketamine, with data acquisition made every 12 minutes on […]).

[5] = target: T3, noradrenaline transporter (Rattus norvegicus, UniProt Q63380); test: in vitro competition with [^3 H]-nisoxetine on brain membrane preparations; format: binding
T3 construct: in vitro studies are conducted on brain membrane preparations; from tissue; host or cells: brain membrane preparations
Experimental: as §1
(§10) These studies are competition studies between [^3 H]-GBR 12935 (dopamine transporter), [^3 H]-paroxetine (serotonin transporter), [^3 H]-nisoxetine (noradrenaline transporter) and the iodinated derivative of example 1 (PE21).
(§11) The inhibition constants Ki (nM) obtained with the compound of the invention PE21 in competition with the different ligands are given in table 4.
as §2

[6] = test system: serotonin transporter; test: in vivo brain biodistribution in the rat with preinjection of paroxetine (specific inhibitor of the serotonin transporter); design: species or system rat (male Wistar); conditions: for specificity for the dopamine transporter compared with the serotonin transporter in vivo: rat brain
Experimental: as §3
Batch number 2 first receives an injection of paroxetine (specific inhibitor of the serotonin transporter made by Beecham laboratories) at a dose of 5 mg/kg, and 30 minutes later an injection of the compound of example 1 is given under the same conditions as for batch number 1.
as §5, §6, §7, §8, §9

[7] = biodistribution study in the rat, time course (cerebellum, striatum, frontal cortex); format: in vivo, rat (male Wistar); conditions: for tissue uptake at 0.5 h / tissue uptake at 1 h / tissue uptake at 2 h / tissue uptake at 4 h: rat, iv, 8e-06 mg/kg; for tissue uptake at 0.5 h: 0.5 h post-injection; for tissue uptake at 1 h: 1 h post-injection; for tissue uptake at 2 h: 2 h post-injection; for tissue uptake at 4 h: 4 h post-injection
Experimental: as §4, §5, §6, §7
In this example, a biodistribution study in the rat is also conducted for the compound of example 1 following the same operating mode as in example 14, but sacrificing the animals at 1/2 hour, 1 hour or 4 hours after injection.
In this table, the results obtained in example 14 are also given.

[8] = test system: dopaminergic cells; test: rat model of Parkinson's disease (unilateral 6-OHDA lesion of the nigrostriatal pathway), ex vivo autoradiography; format: in vivo, rat (Wistar); conditions: 2 hours after 3.7 MBq i.v.
Experimental: In this example, the compound of example 1 PE21 was tested in the rat using a model of Parkinson's disease obtained with a unilateral lesion of the nigrostriatal pathway. For this purpose Wistar rats were unilaterally perfused in the substantia nigra with 8 μg of 6-OHDA(6-hydroxy dopamine).
Three weeks later, they were given an intravenous 3.7 MBq injection of [^125 I]PE21.
Two hours afterwards, the rats were sacrificed and their brains collected. The latter were frozen and coronal sections 20 μm thick were taken which were exposed on β-max hyperfilm for six weeks.
The striatum/frontal cortex ratios were calculated after analysis of the films. On the lesion side, an average ratio of 0.86±0.10 was observed, while this ratio was 7.20±0.91 on the intact side.

[9] = test system: dopamine transporter; test: in vitro competition with [^3 H]-GBR 12935 on brain membrane preparations; format: binding; conditions: for Ki: read-out: Affinity: Ki (nM) Dopamine (DA); for Selectivity 5-HT/DA, Ki(5-HT):Ki(DA): [^3 H]paroxetine Ki over [^3 H]GBR Ki
Experimental: as §1, §10, §11, §2

[10] = target: dopamine transporter; conditions: Bonnet and Constantin 1986; cited from earlier work
[11] = target: T1, dopamine transporters; conditions: document 11; cited from earlier work
[12] = target: serotonin transporters; conditions: document 11, page 320; cited from earlier work
[13] = target: T1, dopamine transporters; test: affinity of IPT for dopamine transporters (document 11); format: binding; conditions: from document 11 values
Excerpt: Therefore a specificity Kd(5-HT)/Kd(DA) of approximately 5 is obtained.
By way of comparison, the affinity of compound IPT for dopamine transporters described in document 11 corresponds to: […]

[14] = target: dopamine transporter; conditions: [^3 H]Win35428; document 10; read-out: Affinity: Ki (nM) Dopamine (DA); cited from earlier work
[15] = target: serotonin transporter (Macaca fascicularis, UniProt A7KAX8); conditions: read-out: Affinity: Ki (nM) Serotonin 5-HT; [^3 H]citalopram; document 10; cited from earlier work
[16] = target: dopamine transporter; test: competition with [^3 H]Win35428 (document 10); format: binding; conditions: document 10 data
Excerpt: as §2

[17] = test system: dopamine transporter system; conditions: prior art compound; source not stated; cited from earlier work
[18] = cerebellum, read-out: Cerebellum
[19] = frontal cortex, read-out: Frontal cortex (% injected dose/g tissue)
[20] = striatum, read-out: Striatum (% injected dose/g tissue)

T1 sequence (P23977 whole entry): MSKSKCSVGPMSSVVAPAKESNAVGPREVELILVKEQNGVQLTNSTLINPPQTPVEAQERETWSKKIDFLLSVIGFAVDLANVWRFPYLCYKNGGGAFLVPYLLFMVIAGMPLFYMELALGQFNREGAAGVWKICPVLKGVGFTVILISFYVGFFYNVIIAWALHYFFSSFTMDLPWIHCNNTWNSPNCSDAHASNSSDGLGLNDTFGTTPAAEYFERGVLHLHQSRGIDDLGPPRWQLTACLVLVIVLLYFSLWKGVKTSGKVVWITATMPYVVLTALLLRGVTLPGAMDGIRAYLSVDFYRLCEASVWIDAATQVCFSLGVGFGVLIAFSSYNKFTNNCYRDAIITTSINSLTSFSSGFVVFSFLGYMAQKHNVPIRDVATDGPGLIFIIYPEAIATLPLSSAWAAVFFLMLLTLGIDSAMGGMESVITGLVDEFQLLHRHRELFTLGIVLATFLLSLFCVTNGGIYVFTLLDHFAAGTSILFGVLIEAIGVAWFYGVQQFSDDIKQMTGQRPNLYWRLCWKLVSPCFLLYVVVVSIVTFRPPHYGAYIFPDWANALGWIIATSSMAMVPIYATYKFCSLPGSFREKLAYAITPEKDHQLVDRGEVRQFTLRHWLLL
serotonin transporter (Macaca fascicularis, UniProt A7KAX8), sequence (A7KAX8 1-630): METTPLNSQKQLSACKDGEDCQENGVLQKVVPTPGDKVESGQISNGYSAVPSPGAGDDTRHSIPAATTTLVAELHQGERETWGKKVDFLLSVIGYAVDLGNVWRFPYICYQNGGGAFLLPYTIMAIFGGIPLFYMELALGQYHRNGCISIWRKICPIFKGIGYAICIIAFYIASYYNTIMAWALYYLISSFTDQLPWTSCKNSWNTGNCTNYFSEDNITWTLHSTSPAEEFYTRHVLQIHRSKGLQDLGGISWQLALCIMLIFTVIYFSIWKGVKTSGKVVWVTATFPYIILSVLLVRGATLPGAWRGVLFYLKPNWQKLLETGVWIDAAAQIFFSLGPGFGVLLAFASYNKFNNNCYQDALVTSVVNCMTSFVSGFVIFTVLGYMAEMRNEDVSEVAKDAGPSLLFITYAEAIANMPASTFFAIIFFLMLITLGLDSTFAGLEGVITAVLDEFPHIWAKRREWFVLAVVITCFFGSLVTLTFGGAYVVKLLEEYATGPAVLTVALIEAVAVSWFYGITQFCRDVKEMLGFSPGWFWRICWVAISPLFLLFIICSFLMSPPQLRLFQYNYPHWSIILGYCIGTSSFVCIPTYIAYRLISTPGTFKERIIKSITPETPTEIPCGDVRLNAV
T3 sequence (Q63380 1-617): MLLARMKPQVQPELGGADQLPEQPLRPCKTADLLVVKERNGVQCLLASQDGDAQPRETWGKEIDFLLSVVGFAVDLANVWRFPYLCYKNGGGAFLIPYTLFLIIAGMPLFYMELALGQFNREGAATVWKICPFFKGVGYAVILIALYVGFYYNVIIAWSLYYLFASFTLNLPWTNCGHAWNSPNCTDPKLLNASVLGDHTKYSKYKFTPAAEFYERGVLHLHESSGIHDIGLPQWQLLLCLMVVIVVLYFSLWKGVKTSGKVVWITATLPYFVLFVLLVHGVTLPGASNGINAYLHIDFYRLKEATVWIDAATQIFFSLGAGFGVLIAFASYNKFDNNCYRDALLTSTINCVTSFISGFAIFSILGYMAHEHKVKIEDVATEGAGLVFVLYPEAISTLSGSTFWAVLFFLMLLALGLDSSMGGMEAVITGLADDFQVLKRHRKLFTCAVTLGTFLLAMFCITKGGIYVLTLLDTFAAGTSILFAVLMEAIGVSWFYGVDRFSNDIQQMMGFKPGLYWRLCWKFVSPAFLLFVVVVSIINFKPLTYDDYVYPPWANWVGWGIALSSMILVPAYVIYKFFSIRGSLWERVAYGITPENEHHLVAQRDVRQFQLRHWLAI
T2 sequence (P31652 whole entry): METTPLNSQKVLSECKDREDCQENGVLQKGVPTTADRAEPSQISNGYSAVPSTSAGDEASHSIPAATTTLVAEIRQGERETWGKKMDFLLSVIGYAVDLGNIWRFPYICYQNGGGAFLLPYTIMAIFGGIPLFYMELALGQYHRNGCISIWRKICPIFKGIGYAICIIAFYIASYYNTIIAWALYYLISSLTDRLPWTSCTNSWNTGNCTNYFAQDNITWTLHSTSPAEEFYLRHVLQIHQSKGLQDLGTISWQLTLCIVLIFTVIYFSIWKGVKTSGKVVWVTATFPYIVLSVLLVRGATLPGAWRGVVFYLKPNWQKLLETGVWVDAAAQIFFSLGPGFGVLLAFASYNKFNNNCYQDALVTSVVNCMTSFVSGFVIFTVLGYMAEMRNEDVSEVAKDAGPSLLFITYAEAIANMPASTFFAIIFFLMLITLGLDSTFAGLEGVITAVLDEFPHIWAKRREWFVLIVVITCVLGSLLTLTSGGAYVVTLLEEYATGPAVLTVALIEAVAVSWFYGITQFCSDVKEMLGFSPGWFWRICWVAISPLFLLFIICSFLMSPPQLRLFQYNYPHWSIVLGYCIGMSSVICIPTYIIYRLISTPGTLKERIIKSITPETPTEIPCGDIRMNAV

SMILES: COC(=O)[C@H]1[C@@H](c2ccc(C)cc2)C[C@@H]2CC[C@H]1N2C/C=C/[125I] [Example 1, 2β-carbomethoxy-3β-(p-methylphenyl)-8-(3-[^125 I]iodoprop-2E-enyl)nortropane]
- affinity relative to IPT ([1]; Kd of PE21 vs Kd of IPT (document 11)): 2.5 times
- Kd ([1]; [^125 I]PE21): 0.09 ± 0.01 nM
- Ki [2]: 500 ± 80 nM
- non-specific fixation in the striatum determined after saturation with GBR 12909 ([3]; 2 hours): approximately 25%
- specificity for the dopamine transporter in the striatum at early times ([3]; 2 hours, words): very strong specificity for the dopamine transporter in the striatum
- fixation in the striatum prevented/inhibited by preinjection of GBR 12909 [3]: 74%
- binding at the central grey nuclei [4]: binds itself in specific manner at the central grey nuclei
- Ki ([5]; [^3 H]nisoxetine, read-out: Affinity: Ki (nM) Nor-adrenaline): > 100 nM
- specificity for the dopamine transporter compared with the serotonin transporter in vivo ([6]; words): very strong specificity for the dopamine transporter compared with the serotonin transporter
- tissue uptake at 0.5 h [7, 18]: 0.1 %ID/g
- tissue uptake at 1 h [7, 18]: 0.055 %ID/g
- tissue uptake at 2 h [7, 18]: 0.038 %ID/g
- tissue uptake at 4 h [7, 18]: 0.021 %ID/g
- tissue uptake at 0.5 h [7, 19]: 0.124 %ID/g
- tissue uptake at 1 h [7, 19]: 0.07 %ID/g
- tissue uptake at 2 h [7, 19]: 0.039 %ID/g
- tissue uptake at 4 h [7, 19]: 0.018 %ID/g
- tissue uptake at 0.5 h [7, 20]: 1.06 %ID/g
- tissue uptake at 1 h [7, 20]: 0.537 %ID/g
- tissue uptake at 2 h [7, 20]: 0.272 %ID/g
- tissue uptake at 4 h [7, 20]: 0.074 %ID/g
- accumulation in the striatum ([7]; words): accumulates in preferential manner in the striatum
- striatum/frontal cortex ratio, lesion side ([8]; 6-OHDA lesion side): 0.86±0.10
- striatum/frontal cortex ratio, intact side ([8]; intact side): 7.20±0.91
- specificity relative to IPT ([9]; Ki(5-HT)/Ki(DA) of PE21 vs Kd(5-HT)/Kd(DA) of IPT): 5 times
- Ki ratio DA (PE21)/DA (β-CIT) ([9]; [^3 H]GBR): 0.63
- Ki ([9]; [^3 H]GBR): 17 ± 7 nM
- Selectivity 5-HT/DA, Ki(5-HT):Ki(DA) [9]: 29.4
- better affinity for dopamine transporter relative to iodoaltropane ([9]; from Ki ratios to β-CIT): 10 times

SMILES: C(=Cc1ccccc1)CN1CCN(CCOC(c2ccccc2)c2ccccc2)CC1 [GBR 12783]
- Kd [10]: 1.6 nM

SMILES: COC(=O)[C@H]1[C@@H](c2ccc(Cl)cc2)C[C@@H]2CC[C@H]1N2CC=CI [IPT]
- Kd [11]: 0.25 ± 0.02 nM
- Kd [12]: 1.2 ± 0.02 nM
- specificity Kd(5-HT)/Kd(DA) [13]: approximately 5

SMILES: COC(=O)[C@H]1[C@@H](c2ccc(F)cc2)C[C@@H]2CC[C@H]1N2C/C=C/I [Iodoaltropane]
- Ki [14]: 6.62 ± 0.78 nM
- Ki [15]: 182 ± 41.8 nM
- Ki ratio DA (iodoaltropane)/DA (β-CIT) [16]: 6

SMILES: COC(=O)[C@H]1[C@@H](c2ccc(I)cc2)C[C@@H]2CC[C@H]1N2C [β-CIT, 2β-carbomethoxy-3β-(4' iodophenyl)-tropane, reference compound]
- Ki [14]: 1.08 ± 0.6 nM
- Ki [2]: 30 ± 2 nM
- Ki [15]: 2.53 ± 0.02 nM
- non-specific fixation in the striatum determined after saturation with GBR 12909 ([3]; 2 hours): ~70%
- fixation in the striatum prevented/inhibited by preinjection of GBR 12909 [3]: 31%
- Ki [5]: 80 ± 28 nM
- fixation in the frontal cortex compared with the compound of the invention ([6]; frontal cortex, rich in serotonin transporter sites, 2 hours, words): much higher than that of the compound of the invention
- inhibition of fixation in the frontal cortex through a preinjection of paroxetine ([6]; frontal cortex, paroxetine 5 mg/kg i.v. 30 min before, 2 hours): 55%
- specificity for the dopamine transporter compared with the serotonin transporter in vivo ([6]; words): binds to both these transporters
- time at which a specific image of the central grey nuclei starts to be produced [17]: > 20 h
- Ki ([9]; [^3 H]GBR): 27 ± 2 nM
- Selectivity 5-HT/DA, Ki(5-HT):Ki(DA) [9]: 1.11
